Experimental data as given in publication PMC9856672, “SGC-CAMKK2-1: A Chemical Probe for CAMKK2” (Cells, 2023).

Legend:
PAK6 = target: T1, PAK6 (Homo sapiens, UniProt Q9NQU5); test: KINOMEscan 1 μM, PAK6; assay type: binding; details: 1000 nM; Entrez PAK6; read-out: Percent Control
T1 construct: purchased Eurofins DiscoverX KINOMEscan
Excerpt: (§1) Supplement cells-12-00287-s001.zip/File S2. KinomeScan data for the CAMKK2 probe and negative control.xlsx, sheet "SGC-CAMKK2-1" | column: Percent Control

FAK = target: T2, FAK (Homo sapiens, UniProt Q05397); test: KINOMEscan 1 μM, FAK; assay type: binding; details: 1000 nM; Entrez PTK2; read-out: Percent Control
T2 construct: purchased Eurofins DiscoverX KINOMEscan
T2 sequence (Q05397 whole entry): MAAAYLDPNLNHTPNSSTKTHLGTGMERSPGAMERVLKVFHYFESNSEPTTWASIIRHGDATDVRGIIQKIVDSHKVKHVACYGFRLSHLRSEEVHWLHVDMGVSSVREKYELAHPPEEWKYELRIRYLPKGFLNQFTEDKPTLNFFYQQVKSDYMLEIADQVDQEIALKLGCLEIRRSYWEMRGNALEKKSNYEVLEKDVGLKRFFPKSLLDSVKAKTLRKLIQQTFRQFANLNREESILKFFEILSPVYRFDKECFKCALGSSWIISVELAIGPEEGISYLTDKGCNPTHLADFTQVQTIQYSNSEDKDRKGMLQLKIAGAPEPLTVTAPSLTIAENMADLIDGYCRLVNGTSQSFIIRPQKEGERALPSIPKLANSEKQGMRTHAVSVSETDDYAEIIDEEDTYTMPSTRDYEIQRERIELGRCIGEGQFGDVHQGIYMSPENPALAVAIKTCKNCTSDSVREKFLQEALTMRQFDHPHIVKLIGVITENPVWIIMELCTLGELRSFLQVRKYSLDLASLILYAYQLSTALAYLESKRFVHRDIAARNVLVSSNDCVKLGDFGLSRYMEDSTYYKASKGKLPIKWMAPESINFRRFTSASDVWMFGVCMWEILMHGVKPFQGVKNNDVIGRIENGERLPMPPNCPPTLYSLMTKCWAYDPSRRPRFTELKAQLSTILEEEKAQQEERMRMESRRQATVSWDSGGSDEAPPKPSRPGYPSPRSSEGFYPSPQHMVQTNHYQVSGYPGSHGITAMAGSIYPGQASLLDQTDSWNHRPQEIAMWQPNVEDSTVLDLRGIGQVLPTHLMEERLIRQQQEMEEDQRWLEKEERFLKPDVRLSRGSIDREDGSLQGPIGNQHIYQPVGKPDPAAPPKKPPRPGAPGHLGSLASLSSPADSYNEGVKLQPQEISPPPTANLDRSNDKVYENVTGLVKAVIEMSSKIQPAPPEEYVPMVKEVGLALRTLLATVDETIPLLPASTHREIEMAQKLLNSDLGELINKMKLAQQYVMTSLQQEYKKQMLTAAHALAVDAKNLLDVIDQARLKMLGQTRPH
Excerpt: as §1

HUNK = target: T3, HUNK (Homo sapiens, UniProt P57058); test: KINOMEscan 1 μM, HUNK; assay type: binding; details: 1000 nM; Entrez HUNK; read-out: Percent Control
T3 construct: purchased Eurofins DiscoverX KINOMEscan
Excerpt: as §1

SNRK = target: T4, SNRK (Homo sapiens, UniProt Q9NRH2); test: KINOMEscan 1 μM, SNRK; assay type: binding; details: 1000 nM; Entrez SNRK; read-out: Percent Control
T4 construct: purchased Eurofins DiscoverX KINOMEscan
Excerpt: as §1

TEC = target: T5, TEC (Homo sapiens, UniProt P42680); test: KINOMEscan 1 μM, TEC; assay type: binding; details: 1000 nM; Entrez TEC; read-out: Percent Control
T5 construct: purchased Eurofins DiscoverX KINOMEscan
Excerpt: as §1

TSSK3 = target: T6, TSSK3 (Homo sapiens, UniProt Q96PN8); test: KINOMEscan 1 μM, TSSK3; assay type: binding; details: 1000 nM; Entrez TSSK3; read-out: Percent Control
T6 construct: purchased Eurofins DiscoverX KINOMEscan
Excerpt: as §1

TNK2 = target: T7, TNK2 (Homo sapiens, UniProt Q07912); test: KINOMEscan 1 μM, TNK2; assay type: binding; details: 1000 nM; Entrez TNK2; read-out: Percent Control
T7 construct: purchased Eurofins DiscoverX KINOMEscan
Excerpt: as §1

AKT1 = target: T8, AKT1 (Homo sapiens, UniProt P31749); test: KINOMEscan 1 μM, AKT1; assay type: binding; details: 1000 nM; Entrez AKT1; read-out: Percent Control
T8 construct: purchased Eurofins DiscoverX KINOMEscan
T8 sequence (P31749 whole entry): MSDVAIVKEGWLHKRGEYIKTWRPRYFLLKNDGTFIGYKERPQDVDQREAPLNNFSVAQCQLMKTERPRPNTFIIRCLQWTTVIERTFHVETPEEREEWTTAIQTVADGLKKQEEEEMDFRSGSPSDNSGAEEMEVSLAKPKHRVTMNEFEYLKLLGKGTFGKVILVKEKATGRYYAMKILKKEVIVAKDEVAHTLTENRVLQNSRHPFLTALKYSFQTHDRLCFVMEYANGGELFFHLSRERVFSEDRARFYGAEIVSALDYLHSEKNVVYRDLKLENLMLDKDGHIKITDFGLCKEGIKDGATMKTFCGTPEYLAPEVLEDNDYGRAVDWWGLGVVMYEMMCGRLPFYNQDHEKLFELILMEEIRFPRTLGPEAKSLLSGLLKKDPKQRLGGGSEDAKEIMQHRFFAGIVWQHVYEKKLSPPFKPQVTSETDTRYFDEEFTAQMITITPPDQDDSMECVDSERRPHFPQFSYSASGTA
Excerpt: as §1

BRSK2 = target: T9, BRSK2 (Homo sapiens, UniProt Q8IWQ3); test: KINOMEscan 1 μM, BRSK2; assay type: binding; details: 1000 nM; Entrez BRSK2; read-out: Percent Control
T9 construct: purchased Eurofins DiscoverX KINOMEscan
Excerpt: as §1

EGFR(L858R,T790M) = target: T10, EGFR(L858R,T790M) (Homo sapiens, UniProt P00533, L858R/T790M); test: KINOMEscan 1 μM, EGFR(L858R,T790M); assay type: binding; details: 1000 nM; Entrez EGFR; read-out: Percent Control
T10 construct: purchased Eurofins DiscoverX KINOMEscan
Excerpt: as §1

ICK = target: T11, ICK (Homo sapiens, UniProt Q9UPZ9); test: KINOMEscan 1 μM, ICK; assay type: binding; details: 1000 nM; Entrez ICK; read-out: Percent Control
T11 construct: purchased Eurofins DiscoverX KINOMEscan
Excerpt: as §1

KIT = target: T12, KIT (Homo sapiens, UniProt P10721); test: KINOMEscan 1 μM, KIT; assay type: binding; details: 1000 nM; Entrez KIT; read-out: Percent Control
T12 construct: purchased Eurofins DiscoverX KINOMEscan
Excerpt: as §1

PCTK1 = target: T13, PCTK1 (Homo sapiens, UniProt Q00536); test: DiscoverX KINOMEscan binding assay at 1 μM, PCTK1; details: PCTK1 (CDK16); Compound Concentration 1000 nM; read-out: Percent Control
T13 construct: purchased Eurofins DiscoverX KINOMEscan
Excerpt: as §1

PRKCH = target: T14, PRKCH (Homo sapiens, UniProt P24723); test: DiscoverX KINOMEscan binding assay at 1 μM, PRKCH; details: Compound Concentration 1000 nM, read-out: Percent Control
T14 construct: purchased Eurofins DiscoverX KINOMEscan
Excerpt: as §1

[1] = target: T15, RSK4(Kin.Dom.1-N-terminal) (Homo sapiens, UniProt Q9UK32); test: DiscoverX KINOMEscan binding assay at 1 μM, RSK4(Kin.Dom.1-N-terminal); details: RSK4(Kin.Dom.1-N-terminal) (RPS6KA6); Compound Concentration 1000 nM; read-out: Percent Control
T15 construct: RSK4(Kin.Dom.1-N-terminal); purchased Eurofins DiscoverX KINOMEscan
T15 sequence (Q9UK32 1-400 limits assumed): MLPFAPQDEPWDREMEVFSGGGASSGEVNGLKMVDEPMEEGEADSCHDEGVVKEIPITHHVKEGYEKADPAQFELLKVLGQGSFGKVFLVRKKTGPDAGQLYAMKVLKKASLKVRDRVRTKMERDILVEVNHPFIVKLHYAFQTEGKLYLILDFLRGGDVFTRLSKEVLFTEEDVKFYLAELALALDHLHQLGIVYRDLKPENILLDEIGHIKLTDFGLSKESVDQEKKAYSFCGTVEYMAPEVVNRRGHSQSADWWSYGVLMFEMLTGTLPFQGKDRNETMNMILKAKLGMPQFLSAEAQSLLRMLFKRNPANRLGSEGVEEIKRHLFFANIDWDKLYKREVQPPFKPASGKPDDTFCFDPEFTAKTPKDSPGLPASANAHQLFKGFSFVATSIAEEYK
Excerpt: as §1

SNARK = target: T16, SNARK (Homo sapiens, UniProt Q9H093); test: DiscoverX KINOMEscan binding assay at 1 μM, SNARK; details: SNARK (NUAK2); Compound Concentration 1000 nM; read-out: Percent Control
T16 construct: purchased Eurofins DiscoverX KINOMEscan
Excerpt: as §1

[2] = target: T17, ABL1(Q252H)-phosphorylated (Homo sapiens, UniProt P00519, Q252H); test: KINOMEscan at 1 μM, ABL1(Q252H)-phosphorylated; assay type: binding; details: 1000 nM, read-out: Percent Control
T17 construct: purchased Eurofins DiscoverX KINOMEscan
Excerpt: (§2) Supplement cells-12-00287-s001.zip/File S2. KinomeScan data for the CAMKK2 probe and negative control.xlsx, sheet "SGC-CAMKK2-1N" | column: Percent Control

CTK = target: T18, CTK (Homo sapiens, UniProt P42679); test: KINOMEscan at 1 μM, CTK; assay type: binding; details: 1000 nM, read-out: Percent Control
T18 construct: purchased Eurofins DiscoverX KINOMEscan
Excerpt: as §2

ALK = target: T19, ALK (Homo sapiens, UniProt Q9UM73); test: KINOMEscan at 1 μM, ALK; assay type: binding; details: 1000 nM, read-out: Percent Control
T19 construct: purchased Eurofins DiscoverX KINOMEscan
T19 sequence (Q9UM73 19-1620): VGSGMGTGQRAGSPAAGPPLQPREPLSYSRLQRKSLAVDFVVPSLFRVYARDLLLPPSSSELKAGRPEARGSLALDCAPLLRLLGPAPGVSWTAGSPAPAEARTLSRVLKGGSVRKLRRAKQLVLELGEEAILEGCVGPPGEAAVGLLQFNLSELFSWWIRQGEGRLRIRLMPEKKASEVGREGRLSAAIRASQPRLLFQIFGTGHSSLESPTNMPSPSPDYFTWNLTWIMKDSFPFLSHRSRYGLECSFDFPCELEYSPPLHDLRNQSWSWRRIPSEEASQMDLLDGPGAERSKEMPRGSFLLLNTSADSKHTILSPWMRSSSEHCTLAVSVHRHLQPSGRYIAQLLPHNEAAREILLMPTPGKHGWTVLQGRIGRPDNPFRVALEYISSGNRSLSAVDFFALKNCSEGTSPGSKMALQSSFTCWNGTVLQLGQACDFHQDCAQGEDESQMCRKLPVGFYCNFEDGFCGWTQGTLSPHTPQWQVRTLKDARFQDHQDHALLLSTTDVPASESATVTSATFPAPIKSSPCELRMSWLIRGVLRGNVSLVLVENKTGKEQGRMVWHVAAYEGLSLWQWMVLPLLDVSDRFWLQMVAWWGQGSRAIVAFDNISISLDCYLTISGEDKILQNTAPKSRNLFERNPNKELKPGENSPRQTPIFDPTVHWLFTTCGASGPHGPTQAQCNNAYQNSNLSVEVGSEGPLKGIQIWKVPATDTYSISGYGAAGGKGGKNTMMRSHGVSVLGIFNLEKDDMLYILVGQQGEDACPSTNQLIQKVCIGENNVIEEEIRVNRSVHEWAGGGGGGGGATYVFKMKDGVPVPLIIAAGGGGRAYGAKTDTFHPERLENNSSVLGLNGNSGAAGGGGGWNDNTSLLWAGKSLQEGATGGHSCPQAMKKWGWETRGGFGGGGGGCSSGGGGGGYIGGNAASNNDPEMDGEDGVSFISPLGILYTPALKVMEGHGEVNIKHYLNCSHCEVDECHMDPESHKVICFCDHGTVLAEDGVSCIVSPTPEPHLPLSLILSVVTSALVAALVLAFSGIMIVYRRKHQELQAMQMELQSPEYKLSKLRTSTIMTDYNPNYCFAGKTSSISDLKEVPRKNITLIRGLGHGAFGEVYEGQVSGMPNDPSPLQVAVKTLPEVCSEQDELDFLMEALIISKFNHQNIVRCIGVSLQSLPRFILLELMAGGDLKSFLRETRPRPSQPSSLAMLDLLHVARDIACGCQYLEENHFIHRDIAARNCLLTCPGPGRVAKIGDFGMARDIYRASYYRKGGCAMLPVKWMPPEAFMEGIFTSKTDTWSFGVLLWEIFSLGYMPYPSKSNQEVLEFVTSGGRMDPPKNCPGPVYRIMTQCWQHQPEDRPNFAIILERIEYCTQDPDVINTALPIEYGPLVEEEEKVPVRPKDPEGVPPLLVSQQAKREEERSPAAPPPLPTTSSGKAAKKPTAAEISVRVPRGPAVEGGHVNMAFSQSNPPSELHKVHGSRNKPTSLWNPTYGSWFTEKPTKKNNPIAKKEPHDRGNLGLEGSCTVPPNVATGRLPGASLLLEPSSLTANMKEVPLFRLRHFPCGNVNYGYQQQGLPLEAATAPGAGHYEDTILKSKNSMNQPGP
Excerpt: as §2

MEK5 = target: T20, MEK5 (Homo sapiens, UniProt Q13163); test: KINOMEscan at 1 μM, MEK5; assay type: binding; details: 1000 nM, read-out: Percent Control
T20 construct: purchased Eurofins DiscoverX KINOMEscan
Excerpt: as §2

ADCK3 = target: T21, ADCK3 (Homo sapiens, UniProt Q8NI60); test: KINOMEscan at 1 μM, ADCK3; assay type: binding; details: 1000 nM, read-out: Percent Control
T21 construct: purchased Eurofins DiscoverX KINOMEscan
Excerpt: as §2

AURKA = target: T22, AURKA (Homo sapiens, UniProt O14965); test: KINOMEscan at 1 μM, AURKA; assay type: binding; details: 1000 nM, read-out: Percent Control
T22 construct: purchased Eurofins DiscoverX KINOMEscan
Excerpt: as §2

PAK2 = target: T23, PAK2 (Homo sapiens, UniProt Q13177); test: KINOMEscan at 1 μM, PAK2; assay type: binding; details: 1000 nM, read-out: Percent Control
T23 construct: purchased Eurofins DiscoverX KINOMEscan
T23 sequence (Q13177 whole entry): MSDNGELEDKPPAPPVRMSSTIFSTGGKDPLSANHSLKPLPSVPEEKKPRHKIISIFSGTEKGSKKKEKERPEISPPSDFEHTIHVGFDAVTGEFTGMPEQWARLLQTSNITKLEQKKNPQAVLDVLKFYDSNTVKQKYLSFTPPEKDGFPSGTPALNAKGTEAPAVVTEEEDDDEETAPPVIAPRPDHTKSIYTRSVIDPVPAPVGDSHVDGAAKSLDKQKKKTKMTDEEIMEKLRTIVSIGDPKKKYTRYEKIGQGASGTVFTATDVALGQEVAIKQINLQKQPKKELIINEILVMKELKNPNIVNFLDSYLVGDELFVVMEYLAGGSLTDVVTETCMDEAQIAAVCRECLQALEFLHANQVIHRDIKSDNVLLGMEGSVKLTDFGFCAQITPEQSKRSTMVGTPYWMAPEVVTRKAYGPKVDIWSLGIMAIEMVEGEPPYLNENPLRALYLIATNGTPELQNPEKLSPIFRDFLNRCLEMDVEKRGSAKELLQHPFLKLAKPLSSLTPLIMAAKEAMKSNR
Excerpt: as §2

FYN = target: T24, FYN (Homo sapiens, UniProt P06241); test: KINOMEscan at 1 μM, FYN; assay type: binding; details: 1000 nM, read-out: Percent Control
T24 construct: purchased Eurofins DiscoverX KINOMEscan
Excerpt: as §2

FLT4 = target: T25, FLT4 (Homo sapiens, UniProt P35916); test: KINOMEscan at 1 μM, FLT4; assay type: binding; details: 1000 nM, read-out: Percent Control
T25 construct: purchased Eurofins DiscoverX KINOMEscan
Excerpt: as §2

BRAF = target: T26, BRAF (Homo sapiens, UniProt P15056); test: KINOMEscan at 1 μM, BRAF; assay type: binding; details: 1000 nM, read-out: Percent Control
T26 construct: purchased Eurofins DiscoverX KINOMEscan
Excerpt: as §2

EPHA4 = target: T27, EPHA4 (Homo sapiens, UniProt P54764); test: KINOMEscan at 1 μM, EPHA4; assay type: binding; details: 1000 nM, read-out: Percent Control
T27 construct: purchased Eurofins DiscoverX KINOMEscan
Excerpt: as §2

TLK1 = target: T28, TLK1 (Homo sapiens, UniProt Q9UKI8); test: KINOMEscan at 1 μM, TLK1; assay type: binding; details: 1000 nM, read-out: Percent Control
T28 construct: purchased Eurofins DiscoverX KINOMEscan
Excerpt: as §2

IKK-epsilon = target: T29, IKK-epsilon (Homo sapiens, UniProt Q14164); test: KINOMEscan at 1 μM, IKK-epsilon; assay type: binding; details: 1000 nM, read-out: Percent Control
T29 construct: purchased Eurofins DiscoverX KINOMEscan
Excerpt: as §2

ACVR1B = target: T30, ACVR1B (Homo sapiens, UniProt P36896); test: KINOMEscan at 1 μM, ACVR1B; assay type: binding; details: 1000 nM, read-out: Percent Control
T30 construct: purchased Eurofins DiscoverX KINOMEscan
Excerpt: as §2

DDR2 = target: T31, DDR2 (Homo sapiens, UniProt Q16832); test: KINOMEscan at 1 μM, DDR2; assay type: binding; details: 1000 nM, read-out: Percent Control
T31 construct: purchased Eurofins DiscoverX KINOMEscan
Excerpt: as §2

EPHA8 = target: T32, EPHA8 (Homo sapiens, UniProt P29322); test: KINOMEscan binding assay at 1 μM, EPHA8; details: Compound Concentration 1000 nM; read-out: Percent Control
T32 construct: purchased Eurofins DiscoverX KINOMEscan
T32 sequence (P29322 28-1005): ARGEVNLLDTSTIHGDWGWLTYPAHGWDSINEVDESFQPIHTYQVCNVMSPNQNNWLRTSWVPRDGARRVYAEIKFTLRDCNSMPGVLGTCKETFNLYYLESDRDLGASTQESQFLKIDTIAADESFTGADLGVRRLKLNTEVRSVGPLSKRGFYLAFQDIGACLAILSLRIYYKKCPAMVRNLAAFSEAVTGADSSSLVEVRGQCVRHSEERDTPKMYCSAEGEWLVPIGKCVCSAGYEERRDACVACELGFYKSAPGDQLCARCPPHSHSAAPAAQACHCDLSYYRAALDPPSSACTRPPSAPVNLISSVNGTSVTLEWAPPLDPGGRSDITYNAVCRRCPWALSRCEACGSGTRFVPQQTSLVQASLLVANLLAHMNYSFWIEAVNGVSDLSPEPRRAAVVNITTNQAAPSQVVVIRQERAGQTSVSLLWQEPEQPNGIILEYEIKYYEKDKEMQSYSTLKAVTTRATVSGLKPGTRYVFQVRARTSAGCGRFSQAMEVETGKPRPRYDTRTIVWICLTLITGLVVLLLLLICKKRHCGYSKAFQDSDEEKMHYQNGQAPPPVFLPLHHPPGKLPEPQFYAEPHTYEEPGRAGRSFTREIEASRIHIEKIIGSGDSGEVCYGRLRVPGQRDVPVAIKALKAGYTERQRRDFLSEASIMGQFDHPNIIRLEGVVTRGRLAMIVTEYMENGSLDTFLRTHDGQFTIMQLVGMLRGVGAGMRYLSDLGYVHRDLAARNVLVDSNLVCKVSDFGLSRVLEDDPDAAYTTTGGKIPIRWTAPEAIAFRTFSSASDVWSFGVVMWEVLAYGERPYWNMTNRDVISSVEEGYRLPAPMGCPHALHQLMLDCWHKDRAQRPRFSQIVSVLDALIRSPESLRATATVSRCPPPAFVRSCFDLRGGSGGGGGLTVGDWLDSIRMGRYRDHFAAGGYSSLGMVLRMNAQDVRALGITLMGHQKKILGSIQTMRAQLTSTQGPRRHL
Excerpt: as §2

IGF1R = target: T33, IGF1R (Homo sapiens, UniProt P08069); test: KINOMEscan binding assay at 1 μM, IGF1R; details: Compound Concentration 1000 nM; read-out: Percent Control
T33 construct: purchased Eurofins DiscoverX KINOMEscan
Excerpt: as §2

`Cc1cccc(-c2cnc3occ(-c4ccc(C(=O)O)c(C5CCCC5)c4)c3c2)c1` [SGC-CAMKK2-1 (YL-36)] was tested, and the remaining binding at 1 µM (PAK6) was 67%, the remaining binding at 1 µM (FAK) was 92% and the remaining binding at 1 µM (HUNK) was 94%. It also gave a remaining binding at 1 µM (SNRK) of 94%, a remaining binding at 1 µM (TEC) of 95% and a remaining binding at 1 µM (TSSK3) of 98%. The remaining binding at 1 µM (TNK2) was 99%, the remaining binding at 1 µM (AKT1) was 100% and the remaining binding at 1 µM (BRSK2) was 100%. The remaining binding at 1 µM (EGFR(L858R,T790M)) was 100%, the remaining binding at 1 µM (ICK) was 100% and the remaining binding at 1 µM (KIT) was 100%. It also gave a remaining binding at 1 µM (PCTK1) of 100%, a remaining binding at 1 µM (PRKCH) of 100% and a remaining binding at 1 µM [1] of 100%. For the same molecule, the remaining binding at 1 µM (SNARK) was 100%.

Molecule `O=C(O)c1ccc(-c2coc3ncc(-c4ccccc4)cc23)cc1Cl` [SGC-CAMKK2-1N (UNC-YL-83)] has a remaining binding at 1 µM [2] of 61%, a remaining binding at 1 µM (CTK) of 63% and a remaining binding at 1 µM (ALK) of 66%. It also gave a remaining binding at 1 µM (MEK5) of 67%, a remaining binding at 1 µM (ADCK3) of 68% and a remaining binding at 1 µM (AURKA) of 74%. It also gave a remaining binding at 1 µM (PAK2) of 78%, a remaining binding at 1 µM (FYN) of 80% and a remaining binding at 1 µM (FLT4) of 82%. The remaining binding at 1 µM (BRAF) was 84%, the remaining binding at 1 µM (EPHA4) was 86% and the remaining binding at 1 µM (TLK1) was 92%. It also gave a remaining binding at 1 µM (IKK-epsilon) of 98%, a remaining binding at 1 µM (ACVR1B) of 100% and a remaining binding at 1 µM (DDR2) of 100%. It also gave a remaining binding at 1 µM (EPHA8) of 100% and a remaining binding at 1 µM (IGF1R) of 100%.
